Measurements reported in patent US20220192984A1, “PHARMACEUTICAL COMPOSITIONS COMPRISING OTIC THERAPEUTIC AGENTS AND RELATED METHODS” (Frequency Therapeutics, Inc., priority 2018, published 2022).
Like-named read-outs stand apart in the source and are kept apart here.

Key:
gamma secretase = details: cited from earlier work; for Lit cell conc: Table 23
LSD1 [1] = target: T1, LSD1 (Homo sapiens, UniProt O60341); details: Table 18, LSD1; read-out: pKi or IC50 (converted); cited from earlier work
Lgr5+ cells = test: Lgr5+ Assay (Lgr5+ cell assay in vitro); type: cell-based
LSD1 [2] = target: T1, LSD1; details: Table 18, cited from earlier work
[3] = Reconstitution time of lyophilized compositions (Tables E, 28, 35); type: physicochemical; details: for reconstitution time of lyophilized poloxamer with added organic acid salt: poloxamer 16.15%, salt 533.25 mM; for Reconstitution time (minutes) water + DMSO / Reconstitution time (minutes) with water: lyophilized 16.15% P407 with salt at 533.25 mM; for Reconstitution time (minutes) water + DMSO: reconstituted with Diluent ([…] DMSO in water); for Reconstitution time (minutes) with water: reconstituted with water
Method: Diluent 1, 0.85 mL+lyophilized cake. […] Gentle tapping on the exterior of the vessel to help the cake dissolve in the Diluent may be required while keeping it in fridge (or ice bath). To avoid degradation of the composition, minimize stirring and/or vortexing.
Diluent 1, 0.95 mL+Placebo cake: Using a syringe, add the Diluent to the Placebo cake, and rest in a fridge or ice bath (2-8° C.) for 60 minutes or until clear solution is formed. Gentle tapping on the exterior of the vessel to help the cake dissolve in the Diluent may be required while keeping it in fridge (or ice bath). To avoid degradation of the composition, minimize stirring and/or vortexing.
Powder P407 (i.e. non-lyophilized) can be obtained from BASF.
Reconstitution of lyophilized P407 (Placebo) and powder P407 was done using 850 μL Diluent (see above for example preparations of a Diluent) in a vial.
Therefore, to probe the effect of salts other than sodium valproate on reconstitution time, a poloxamer solution at 16.15% concentration either alone or including a salt (e.g. an inorganic salt or organic acid salt) at a concentration of 533.25 mM, was lyophilized. The lyophilized material was then reconstituted using Diluent for reconstitution (6.4% DMSO by wt. % in water) or with water.
Building on the results of Examples 14 to 16, further lyophilized compositions were manufactured and had their reconstitution times evaluated. […] The further lyophilized compositions were made in accordance with Example 10, and reconstituted in accordance with Example 12.

KDM = details: cited from earlier work
[4] = cited from earlier work
[5] = Perilymph Conc. listed for agents (Tables 14-25)
EZH2 [6] = target: T2, EZH2 (Homo sapiens, UniProt Q15910); details: Table 19; cited from earlier work
T2 sequence (Q15910 whole entry, species assumed): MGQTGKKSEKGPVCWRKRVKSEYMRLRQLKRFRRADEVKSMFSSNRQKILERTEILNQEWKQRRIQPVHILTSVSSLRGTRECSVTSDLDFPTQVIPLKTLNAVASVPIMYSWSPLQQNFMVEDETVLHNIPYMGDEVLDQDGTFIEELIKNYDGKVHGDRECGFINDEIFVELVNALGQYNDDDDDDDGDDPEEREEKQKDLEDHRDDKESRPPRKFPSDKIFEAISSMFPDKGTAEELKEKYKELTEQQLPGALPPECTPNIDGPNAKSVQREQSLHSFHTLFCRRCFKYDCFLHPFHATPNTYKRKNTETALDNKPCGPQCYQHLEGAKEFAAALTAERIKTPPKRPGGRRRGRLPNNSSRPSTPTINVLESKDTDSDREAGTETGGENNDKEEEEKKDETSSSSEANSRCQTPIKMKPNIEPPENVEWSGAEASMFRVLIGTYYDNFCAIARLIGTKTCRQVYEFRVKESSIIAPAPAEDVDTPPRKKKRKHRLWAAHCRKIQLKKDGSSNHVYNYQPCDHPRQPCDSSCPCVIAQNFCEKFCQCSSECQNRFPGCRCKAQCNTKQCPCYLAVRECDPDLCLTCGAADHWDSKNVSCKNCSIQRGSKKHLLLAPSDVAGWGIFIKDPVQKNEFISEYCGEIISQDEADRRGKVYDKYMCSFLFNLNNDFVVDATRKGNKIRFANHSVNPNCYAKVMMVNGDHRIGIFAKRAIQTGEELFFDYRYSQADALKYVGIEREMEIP
T2 sequence (O75530 whole entry partner, species assumed): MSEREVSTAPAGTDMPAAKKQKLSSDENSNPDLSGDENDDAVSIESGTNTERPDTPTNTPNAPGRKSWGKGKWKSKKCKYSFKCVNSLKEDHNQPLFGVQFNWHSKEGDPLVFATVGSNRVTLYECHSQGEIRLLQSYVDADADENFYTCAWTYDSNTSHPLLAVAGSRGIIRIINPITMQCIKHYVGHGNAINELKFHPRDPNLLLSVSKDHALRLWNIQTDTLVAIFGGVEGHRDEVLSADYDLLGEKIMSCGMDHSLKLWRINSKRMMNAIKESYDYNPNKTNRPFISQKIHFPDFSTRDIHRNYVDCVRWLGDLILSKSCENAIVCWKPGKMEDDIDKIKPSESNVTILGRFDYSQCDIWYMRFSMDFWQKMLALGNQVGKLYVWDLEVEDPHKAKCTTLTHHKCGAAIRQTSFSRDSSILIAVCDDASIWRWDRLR
T2 sequence (Q15022 whole entry partner, species assumed): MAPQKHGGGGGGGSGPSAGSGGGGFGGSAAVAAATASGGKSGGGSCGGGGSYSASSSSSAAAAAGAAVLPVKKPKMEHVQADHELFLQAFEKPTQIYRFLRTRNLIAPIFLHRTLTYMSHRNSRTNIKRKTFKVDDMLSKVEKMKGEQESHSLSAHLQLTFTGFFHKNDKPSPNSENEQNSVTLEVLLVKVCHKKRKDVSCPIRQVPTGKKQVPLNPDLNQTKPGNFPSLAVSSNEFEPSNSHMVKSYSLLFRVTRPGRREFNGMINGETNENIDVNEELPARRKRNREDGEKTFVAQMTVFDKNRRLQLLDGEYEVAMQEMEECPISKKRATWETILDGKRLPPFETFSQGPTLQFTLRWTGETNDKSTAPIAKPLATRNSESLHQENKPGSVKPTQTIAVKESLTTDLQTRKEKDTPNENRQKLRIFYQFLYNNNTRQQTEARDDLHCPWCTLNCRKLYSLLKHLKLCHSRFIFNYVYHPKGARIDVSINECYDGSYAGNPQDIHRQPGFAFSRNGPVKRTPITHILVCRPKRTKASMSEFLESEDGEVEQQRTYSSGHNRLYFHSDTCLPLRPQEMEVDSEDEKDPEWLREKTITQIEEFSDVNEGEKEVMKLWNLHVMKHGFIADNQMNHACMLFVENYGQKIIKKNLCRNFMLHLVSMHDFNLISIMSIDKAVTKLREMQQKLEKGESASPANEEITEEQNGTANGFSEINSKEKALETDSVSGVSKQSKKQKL

EZH2 [7] = target: T2, EZH2; details: Table 19, EZH2; read-out: pKi or IC50 (converted); cited from earlier work
[8] = Table 23, Aβ40, read-out: Lit cell conc IC50, Aβ40
[9] = Table 23, Aβ42, read-out: Lit cell conc IC50, Aβ42
[10] = Table 21, KDM 5, read-out: Select KDM 5

Compound: C[C@H](c1ccc(F)cc1CCCC(=O)O)N(c1cc(F)ccc1F)S(=O)(=O)c1ccc(Cl)cc1 [BMS 299897]
- IC50 (gamma secretase; [8]): 7.4 nM
- IC50 (gamma secretase; [9]): 7.9 nM

Compound: CC(C)[C@H](O)C(=O)N[C@@H](C)C(=O)N[C@@H]1C(=O)N(C)CCc2ccccc21 [Semagacestat LY 450139]
- IC50 (gamma secretase; Table 23, Aβ38, read-out: Lit cell conc IC50, Aβ38): 12 nM
- IC50 (gamma secretase; [8]): 12.1 nM
- IC50 (gamma secretase; [9]): 10.9 nM

Compound: COc1c(O)cc2oc3cc(O)c(CC=C(C)C)c(O)c3c(=O)c2c1CC=C(C)C [Alpha-mangostin]
- IC50 (LSD1 [1]): 2800 nM

Compound: COC(=O)c1cc(CN2CCN(C(=N)N)CC2)cc(C(=O)N2CCN(C(=O)c3ccc(C(=N)N)cc3)CC2)c1 [CBB-1007]
- Lgr5+ Assay (Lgr5+ cells; Table 18, result in words): Activity
- IC50 (LSD1 [1]): 2100 nM
- IC50 (LSD1 [2]; read-out: Literat. Cell IC50): < 5000 nM

Compound: CC1=C(C(=O)OC2CCCCC2)C(c2ccc([N+](=O)[O-])cc2)C2=C(CC(C)(C)CC2=O)N1 (stereo not shown) [FLI-06]
- IC50 (LSD1 [1]): 92 nM

Compound: C[C@H](NC(=O)CCC(F)(F)F)C(=O)N[C@@H]1C(=O)N(CCO)c2ncccc2-c2ccccc21 [Crenigacestat LY 3039478]
- IC50 (gamma secretase; Table 23, in most of the tumor cell lines, read-out: Lit cell conc IC50): ~1 nM

Compound: C#CCC(CCCCCC)C(=O)[O-].[Na+] (stereo not shown) [Sodium 2-(prop-2-yn-1-yl) octanoate, reference compound]
- reconstitution time of lyophilized poloxamer with added organic acid salt [3]: 420 min

Compound: COc1oc(=O)c2cc(N)ccc2c1Cl [JLK 6]
- Lit cell conc (gamma secretase): 30 µM

Compound: C/C(=N\NC(=O)c1cccc(S(=O)(=O)N2CCOCC2)c1)c1cc(Cl)ccc1O [SP-2509]
- Lgr5+ Assay (Lgr5+ cells; Table 18, result in words): Activity
- IC50 (LSD1 [1]): 13 nM
- Literat. Cell (LSD1 [2]): 350 to 650 nM

Compound: CCOC(=O)CCNc1cc(N2CCc3ccccc3CC2)nc(-c2ccccn2)n1 [GSK-J4]
- IC50 (KDM; [10]): 170 nM
- IC50 (KDM; Table 21, KDM 6, read-out: Select KDM 6): 28 nM

Compound: O=S(=O)(NC1CCC(c2cc(F)ccc2F)(S(=O)(=O)c2ccc(Cl)cc2)CC1)C(F)(F)F (stereo not shown) [MRK 560]
- Lit cell conc (gamma secretase): 0.00065 µM

Compound: CN(C)CCCNc1nc(NC2CCN(Cc3ccccc3)CC2)c2ccccc2n1 [MC2694]
- IC50 (LSD1 [1]): 1000 nM

Compound: c1ccc([C@@H]2C[C@H]2NC2CCNCC2)cc1 [GSK-LSD1]
- Human Plasma Conc ([4]; Table 18): 1 to 100 nM
- Perilymph Conc ([5]; Table 18, lower end of range): ≥ 4 nM-
- Perilymph Conc ([5]; Table 18, range or its upper end): ≤ 50 µM
- Lgr5+ Assay (Lgr5+ cells; Table 18, lower end of concentration range): ≥ 4 nM-

Compound: C[C@H](NC(=O)Cc1cc(F)cc(F)c1)C(=O)N[C@H](C(=O)OC(C)(C)C)c1ccccc1 [DAPT]
- IC50 (gamma secretase; Table 23, neuronal culture, Aβ42, read-out: Lit cell conc IC50, Aβ42): 200 nM
- IC50 (gamma secretase; Table 23, neuronal culture, total Aβ, read-out: Lit cell conc IC50, total Aβ): 115 nM

Compound: O=C([O-])O.[Na+] [Sodium Bicarbonate]
- Reconstitution time (minutes) water + DMSO [3]: undissolved at end of 180 minutes
- Reconstitution time (minutes) with water [3]: undissolved at end of 180 minutes

Compound: Nc1nccc2c1ncn2C1C=C(CO)C(O)C1O (stereo not shown) [DZNep]
- Lgr5+ Assay (Lgr5+ cells; Table 19, result in words): Activity
- Lit Cell Poten (EZH2 [6]): 1000 nM

Compound: CCc1cc(Nc2nc(-c3ccc(-n4cnc(C)c4)c(F)c3)cs2)c(C)cc1C [NGP 555]
- Lit cell conc (gamma secretase): 0.01 µM

Compound: Clc1ccc(N/N=C(\c2ccccc2)c2ccccn2)nc1 [JIB-04]
- IC50 (KDM; [10]): 220 nM

Compound: N[C@H]1CC[C@H](N[C@@H]2C[C@H]2c2ccccc2)CC1 [ORY-1001]
- Lgr5+ Assay (Lgr5+ cells; Table 18, result in words): Activity

Compound: CSc1ccc(/C=C2/C(C)=C(CC(=O)O)c3cc(F)ccc32)cc1 [Suldinac sulfide]
- Lit cell conc (gamma secretase): 34 µM

Compound: C=CCNc1nc(N)c(C(=O)c2ccc(Cl)s2)s1 [IBS008738, reference compound]
- Perilymph Conc ([5]; Table 22, listed concentration, no test described): 1.1 to 30 µM
- Lgr5+ Assay (Lgr5+ cells; Table 22): 1.1 to 30 µM

Compound: CC(C(=O)O)c1ccc2c(c1)[nH]c1ccc(Cl)cc12 (stereo not shown) [Carprofen]
- Lit cell conc (gamma secretase): 76 µM

Compound: CCN(c1cc(C#CCN2CCOCC2)cc(C(=O)NCc2c(C)cc(C)[nH]c2=O)c1C)[C@H]1CC[C@H](N(C)CCOC)CC1 [EPZ-011989]
- Lit Cell Poten (EZH2 [6]): 94 nM

Compound: C#CCC(CCCCCC)C(=O)[O-].[Na+] (stereo not drawn) [Sodium 2-(prop-2-yn-l-yl) Octanoate]
- Reconstitution time (minutes) water + DMSO [3]: 4 min
- Reconstitution time (minutes) with water [3]: 4 min

Compound: O=C(O)CC[C@H]1CC[C@@](c2cc(F)ccc2F)(S(=O)(=O)c2ccc(Cl)cc2)CC1 [MK-0572]
- IC50 (gamma secretase; Table 23, SH-SY5Y cells, read-out: Lit cell conc IC50): 5 nM

Compound: O=C(N/N=C/c1c(O)ccc2ccccc12)c1ccncc1 [AS 8351]
- Human In Vivo Conc ([4]; Table 21): 1 to 3 µM
- Perilymph Conc ([5]; Table 21): 1 to 3 µM
- Lgr5+ Assay (Lgr5+ cells; Table 21): 1 to 3 µM

Compound: [Cl-].[Na+] [Sodium Chloride]
- Reconstitution time (minutes) water + DMSO [3]: 150 min
- Reconstitution time (minutes) with water [3]: 150 min

Compound: O=S(=O)(N[C@H](CO)C(C(F)(F)F)C(F)(F)F)c1ccc(Cl)s1 [Begacestat/GSI-953]
- EC50 (gamma secretase; Table 23, Aβ40, in cells, read-out: Lit cell conc EC50, lowers Aβ40): 14.8 nM
- EC50 (gamma secretase; Table 23, Aβ42, in cells, read-out: Lit cell conc EC50, lowers Aβ42): 12.4 nM

Compound: NO [Hydroxylamine]
- IC50 (LSD1 [1]): 121 nM

Compound: Cc1coc2c1C(=O)C(=O)c1c-2ccc2c1CC[C@@H](O)[C@]2(C)O [Tanshindiol C]
- IC50 (EZH2 [7]): 550 nM

Compound: [Cl-].[K+] [Potassium Chloride]
- Reconstitution time (minutes) water + DMSO [3]: 168 min
- Reconstitution time (minutes) with water [3]: 180 min

Compound: COc1cc(C)[nH]c(=O)c1CNC(=O)c1c(C)n([C@H](C)C2CCN(CC(F)(F)F)CC2)c2ccccc12 [CPI-1205]
- Human In Vivo Conc ([4]; Table 19): 0.025 to 0.25 µM
- Perilymph Conc ([5]; Table 19): 0.01 to 1 µM

Compound: NC(=O)[C@@H](CCC(F)(F)F)N(Cc1ccc(-c2ncon2)cc1F)S(=O)(=O)c1ccc(Cl)cc1 [Avagacestat/BMS-708163]
- IC50 (gamma secretase; [8]): 0.3 nM
- IC50 (gamma secretase; [9]): 0.27 nM

Compound: Tanshindiol B
- IC50 (EZH2 [7]): 520 nM

Compound: Cc1cc(C)c(CNC(=O)c2cc(Cl)c3c(c2C)O[C@@](C)([C@H]2CC[C@H](N(C)C)CC2)O3)c(=O)[nH]1 [Valemetostat]
- Perilymph Conc ([5]; Table 19): 0.01 to 1 µM

Compound: CS(=O)(=O)c1ccc(-c2cnc(NCc3ccco3)n3cnnc23)cc1 [EED226]
- Lgr5+ Assay (Lgr5+ cells; Table 19, result in words): Activity

Compound: CCOc1ccc2nc3cc(N)ccc3c(N)c2c1 [Ethacridine, reference compound]
- Lgr5+ Assay (Lgr5+ cells; Table 22, result in words): Activity

Compound: [Cl-].[Cl-].[Mg+2] [Magnesium Chloride]
- Reconstitution time (minutes) water + DMSO [3]: 180 min
- Reconstitution time (minutes) with water [3]: 180 min

Compound: Magnesium divalproate [reference compound]
- Reconstitution time (minutes) water + DMSO [3]: 14 min
- Reconstitution time (minutes) with water [3]: 14 min
- reconstitution time of lyophilized poloxamer with added organic acid salt [3]: 420 min

Compound: O=C(O)C1(c2ccc(-c3ccc(Cl)c(Cl)c3)c(F)c2)CC1 [CHF5074]
- IC50 (gamma secretase; [8]): 18400 nM

Compound: COc1nc(-c2cc(C)c(N[C@@H](C)c3ccc(F)cc3)nn2)ccc1-n1cnc(C)c1 [BPN-15606]
- IC50 (gamma secretase; [8]): 17 nM
- IC50 (gamma secretase; [9]): 7 nM

Compound: COc1ccc2c(c1)c(CC(=O)O)c(C)n2C(=O)c1ccc(Cl)cc1 [Indomethacin]
- Lit cell conc (gamma secretase): 25 to 50 µM

Compound: CC(C)C[C@H](C(=O)O)c1cc(-c2ccc(C(F)(F)F)cc2)cc(-c2ccc(C(F)(F)F)cc2)c1 [JNJ-40418677]
- Lit cell conc (gamma secretase): 0.18 to 0.2 µM

Compound: [Ca+2].[Cl-].[Cl-] [Calcium Chloride]
- Reconstitution time (minutes) water + DMSO [3]: plugs remain at end of 180 minutes
- Reconstitution time (minutes) with water [3]: plugs remain at end of 180 minutes

Compound: O=P(O)(O)O [Potassium Phosphate]
- Reconstitution time (minutes) water + DMSO [3]: undissolved at end of 180 minutes
- Reconstitution time (minutes) with water [3]: undissolved at end of 180 minutes

Compound: CCCc1cc(C)[nH]c(=O)c1CNC(=O)c1cc(-c2ccnc(N3CCN(C)CC3)c2)cc2c1cnn2C(C)C [GSK343]
- Lit Cell Poten (EZH2 [6]): 174 nM

Compound: CCc1c(-c2ccccc2C)nc2c(C#N)c[nH]n2c1=O [CPI-4203]
- IC50 (KDM; [10]): 1100 nM

Compound: C=CC(=O)Nc1cc(Nc2nccc(-c3cn(C)c4ccccc34)n2)c(OC)cc1N(C)CCN(C)C [Osimertinib]
- Literat. Cell (LSD1 [2]): 43 nM

Compound: COc1ccc(CCN2CCC(Nc3nc4ccccc4n3Cc3ccc(F)cc3)CC2)cc1 [Astemizole]
- IC50 (EZH2 [7]): 94000 nM

Compound: CCc1c(N(CC)C2CCOCC2)cc2oc(C3CCN(C(C)C)CC3)cc2c1C(=O)NCc1c(C)cc(C)[nH]c1=O [EBI-2511]
- IC50 (EZH2 [7]): 4 nM
